Our source for the Mean values is ChEMBL document CHEMBL1159166, “Chemoselective thioacylation of amino acids. Preparation of the four monothiothymopentin analogs and their biological activity” (1993).

Where a SMILES comes first, the peptide text is derived from it.

The experiment is filed under the species Bos taurus. Kind of experiment: Electromyographic activity is measured as mean of the ratio of the height of the muscle action potential generated by the tenth impulse to the initial impulse in bovine thymus extracts at 10 mg. Format: functional, Muscle tissue.
As to `CC(C)[C@H](NC(=O)[C@H](CC(=O)O)NC(=O)[C@H](CCCCN)/N=C(\S)[C@@H](N)CCCN=C(N)N)C(=O)N[C@@H](Cc1ccc(O)cc1)C(=O)O`, the Mean amounted to 0.85.

Consider `CC(C)[C@H](/N=C(\S)[C@H](CC(=O)O)NC(=O)[C@H](CCCCN)NC(=O)[C@@H](N)CCCN=C(N)N)C(=O)N[C@@H](Cc1ccc(O)cc1)C(=O)O`, for which the Mean came out at 0.89.

Regarding `CC(C)[C@H](NC(=O)[C@H](CC(=O)O)NC(=O)[C@H](CCCCN)NC(=O)[C@@H](N)CCCN=C(N)N)/C(S)=N/[C@@H](Cc1ccc(O)cc1)C(=O)O`, the Mean is given as 0.84.

With `CC(C)[C@H](NC(=O)[C@H](CC(=O)O)/N=C(\S)[C@H](CCCCN)NC(=O)[C@@H](N)CCCN=C(N)N)C(=O)N[C@@H](Cc1ccc(O)cc1)C(=O)O`, the Mean was determined as 0.83.

Take `CC(C)[C@H](NC(=O)[C@H](CC(=O)O)NC(=O)[C@H](CCCCN)NC(=O)[C@@H](N)CCCN=C(N)N)C(=O)N[C@@H](Cc1ccc(O)cc1)C(=O)O` [THYMOPENTIN] (H-RKDVY-OH): the Mean is given as 0.83.
